Source: ChEMBL document CHEMBL4118132, “Novel 5-methyl-2-phenylphenanthridium derivatives as FtsZ-targeting antibacterial agents from structural simplification of natural product sanguinarine” (2018)
Active and inactive are the calls of the source. No cut-off for these calls is given here.

Tests used:
Staphylococcus aureus [1] = assay: Antibacterial activity against penicillin-susceptible Staphylococcus aureus ATCC 25923 after 24 hrs by broth microdilution method; type: functional; settings: ATCC 25923, 24 h
Staphylococcus aureus [2] = assay: Antibacterial activity against methicillin-resistant Staphylococcus aureus ATCC 43300 after 24 hrs by broth microdilution method; type: functional; settings: ATCC 43300, 24 h
Staphylococcus aureus [3] = assay: Antibacterial activity against penicillin-resistant Staphylococcus aureus clinical isolate after 24 hrs by broth microdilution method; type: functional
[4] = test system: Staphylococcus epidermidis; assay: Antibacterial activity against penicillin-resistant Staphylococcus epidermidis clinical isolate after 24 hrs by broth microdilution method; type: functional
Staphylococcus aureus [5] = assay: Potency index, ratio of ciprofloxacin MIC to test compound MIC for penicillin-resistant Staphylococcus aureus clinical isolate; type: functional
Streptococcus pyogenes [6] = assay: Antibacterial activity against penicillin-susceptible Streptococcus pyogenes after 24 hrs by broth microdilution method; type: functional
Streptococcus pyogenes [7] = assay: Antibacterial activity against penicillin-resistant Streptococcus pyogenes after 24 hrs by broth microdilution method; type: functional
Bacillus subtilis [8] = assay: Antibacterial activity against penicillin-susceptible Bacillus subtilis ATCC 9372 after 24 hrs by broth microdilution method; type: functional; settings: ATCC 9372, 24 h
Bacillus pumilus [9] = assay: Antibacterial activity against penicillin-susceptible Bacillus pumilus ATCC 63202 after 24 hrs by broth microdilution method; type: functional; settings: ATCC 63202, 24 h
Staphylococcus aureus [10] = assay: Potency index, ratio of ciprofloxacin MIC to test compound MIC for penicillin-susceptible Staphylococcus aureus ATCC 25923; type: functional
Staphylococcus aureus [11] = assay: Potency index, ratio of oxacillin sodium MIC to test compound MIC for penicillin-susceptible Staphylococcus aureus ATCC 25923; type: functional
Staphylococcus aureus [12] = assay: Potency index, ratio of oxacillin sodium MIC to test compound MIC for methicillin-resistant Staphylococcus aureus ATCC 43300; type: functional
[13] = test system: Staphylococcus epidermidis; assay: Potency index, ratio of ciprofloxacin MIC to test compound MIC for penicillin-resistant Staphylococcus epidermidis clinical isolate; type: functional
[14] = test system: Staphylococcus epidermidis; assay: Potency index, ratio of oxacillin sodium MIC to test compound MIC for penicillin-resistant Staphylococcus epidermidis clinical isolate; type: functional
Streptococcus pyogenes [15] = assay: Potency index, ratio of ciprofloxacin MIC to test compound MIC for penicillin-susceptible Streptococcus pyogenes; type: functional
Bacillus subtilis [16] = assay: Potency index, ratio of oxacillin sodium MIC to test compound MIC for penicillin-susceptible Bacillus subtilis ATCC 9372; type: functional
Bacillus pumilus [17] = assay: Potency index, ratio of ciprofloxacin MIC to test compound MIC for penicillin-susceptible penicillin-susceptible Bacillus pumilus ATCC 63202; type: functional
Bacillus pumilus [18] = assay: Potency index, ratio of oxacillin sodium MIC to test compound MIC for penicillin-susceptible penicillin-susceptible Bacillus pumilus ATCC 63202; type: functional
Streptococcus pyogenes [19] = assay: Potency index, ratio of ciprofloxacin MIC to test compound MIC for penicillin-resistant Streptococcus pyogenes; type: functional
Streptococcus pyogenes [20] = assay: Potency index, ratio of oxacillin sodium MIC to test compound MIC for penicillin-resistant Streptococcus pyogenes; type: functional
Staphylococcus aureus [21] = assay: Bactericidal activity against penicillin-susceptible Staphylococcus aureus ATCC 25923 after 24 hrs by flat colony counting method; type: functional; settings: ATCC 25923, 24 h
Staphylococcus aureus [22] = assay: Bactericidal activity against penicillin-susceptible Staphylococcus aureus ATCC 25923 assessed as bacterial levels at 32 ug/ml after 1 hr by time-kill assay (reference value: 6.13 to 6.14 log10CFU/ml); type: functional
Staphylococcus aureus [23] = assay: Bactericidal activity against penicillin-susceptible Staphylococcus aureus ATCC 25923 assessed as bacterial levels at 32 ug/ml after 2 hrs by time-kill assay (reference value: 6.13 to 6.17 log10CFU/ml); type: functional
Staphylococcus aureus [24] = assay: Bactericidal activity against penicillin-susceptible Staphylococcus aureus ATCC 25923 assessed as bacterial levels at 32 ug/ml after 4 hrs by time-kill assay (reference value: 6.13 to 6.71 log10CFU/ml); type: functional
Staphylococcus aureus [25] = assay: Bactericidal activity against penicillin-susceptible Staphylococcus aureus ATCC 25923 assessed as bacterial levels at 16 ug/ml after 4 hrs by time-kill assay (reference value: 6.13 to 6.71 log10CFU/ml); type: functional
Staphylococcus aureus [26] = assay: Bactericidal activity against penicillin-susceptible Staphylococcus aureus ATCC 25923 assessed as bacterial levels at 8 ug/ml after 4 hrs by time-kill assay (reference value: 6.13 to 6.71 log10CFU/ml); type: functional
Staphylococcus aureus [27] = assay: Bactericidal activity against penicillin-susceptible Staphylococcus aureus ATCC 25923 assessed as bacterial levels at 16 ug/ml after 6 hrs by time-kill assay (reference value: 6.13 to 7.54 log10CFU/ml); type: functional
Staphylococcus aureus [28] = assay: Bactericidal activity against penicillin-susceptible Staphylococcus aureus ATCC 25923 assessed as bacterial levels at 8 ug/ml after 6 hrs by time-kill assay (reference value: 6.13 to 7.54 log10CFU/ml); type: functional
Staphylococcus aureus [29] = assay: Bactericidal activity against penicillin-susceptible Staphylococcus aureus ATCC 25923 assessed as bacterial levels at 32 ug/ml after 12 hrs by time-kill assay (reference value: 6.13 to 8.01 log10CFU/ml); type: functional
Staphylococcus aureus [30] = assay: Bactericidal activity against penicillin-susceptible Staphylococcus aureus ATCC 25923 assessed as bacterial levels at 16 ug/ml after 12 hrs by time-kill assay (reference value: 6.13 to 8.01 log10CFU/ml); type: functional
Staphylococcus aureus [31] = assay: Bactericidal activity against penicillin-susceptible Staphylococcus aureus ATCC 25923 assessed as bacterial levels at 32 ug/ml after 24 hrs by time-kill assay (reference value: 6.13 to 8.34 log10CFU/ml); type: functional
Staphylococcus aureus [32] = assay: Bactericidal activity against penicillin-susceptible Staphylococcus aureus ATCC 25923 assessed as bacterial levels at 16 ug/ml after 24 hrs by time-kill assay (reference value: 6.13 to 8.34 log10CFU/ml); type: functional
Staphylococcus aureus [33] = assay: Bactericidal activity against penicillin-susceptible Staphylococcus aureus ATCC 25923 assessed as bacterial levels at 8 ug/ml after 24 hrs by time-kill assay (reference value: 6.13 to 8.34 log10CFU/ml); type: functional
[34] = target: T1, Cell division protein FtsZ (Staphylococcus aureus) (UniProt P0A031); assay: Inhibition of FtsZ in penicillin-susceptible Staphylococcus aureus ATCC 25923 assessed as increase in length of bacteria at 0.125 ug/ml after 5 hrs by phase-contrast light microscopic method
T1 sequence (whole entry): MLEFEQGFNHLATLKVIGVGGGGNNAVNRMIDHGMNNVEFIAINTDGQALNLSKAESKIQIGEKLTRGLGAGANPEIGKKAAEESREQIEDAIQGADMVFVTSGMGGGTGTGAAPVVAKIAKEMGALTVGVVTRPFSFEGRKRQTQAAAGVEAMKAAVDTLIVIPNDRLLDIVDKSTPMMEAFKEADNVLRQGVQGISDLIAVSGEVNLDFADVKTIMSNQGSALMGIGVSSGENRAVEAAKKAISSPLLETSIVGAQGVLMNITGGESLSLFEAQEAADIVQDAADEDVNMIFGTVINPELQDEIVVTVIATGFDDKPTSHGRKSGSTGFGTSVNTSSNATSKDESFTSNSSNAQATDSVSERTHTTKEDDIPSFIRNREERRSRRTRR

Cc1cc(-c2ccc(C(F)(F)F)cc2)cc2c3ccccc3c[n+](C)c12.[Cl-]
MIC (Staphylococcus aureus [1]): 0.06 µg/mL
MIC (Staphylococcus aureus [2]): 0.25 µg/mL
MIC (Staphylococcus aureus [3]): 0.25 µg/mL
MIC [4]: 0.125 µg/mL
Ratio (Staphylococcus aureus [5]): 64
MIC (Streptococcus pyogenes [6]): 1 µg/mL
MIC (Streptococcus pyogenes [7]): 2 µg/mL
MIC (Bacillus subtilis [8]): 0.06 µg/mL
MIC (Bacillus pumilus [9]): 0.06 µg/mL
Ratio (Staphylococcus aureus [10]): 133
Ratio (Staphylococcus aureus [11]): 67
Ratio (Staphylococcus aureus [12]): 256
Ratio [13]: 512
Ratio [14]: 512
Ratio (Streptococcus pyogenes [15]): 8
Ratio (Bacillus subtilis [16]): 67
Ratio (Bacillus pumilus [17]): 133
Ratio (Bacillus pumilus [18]): 533
Ratio (Streptococcus pyogenes [19]): 32
Ratio (Streptococcus pyogenes [20]): 32
MBC (Staphylococcus aureus [21]): 16 µg/mL
Activity (Staphylococcus aureus [22]): 5.57 log10CFU/ml
Activity (Staphylococcus aureus [23]): 5.18 log10CFU/ml
Activity (Staphylococcus aureus [24]): 4 log10CFU/ml
Activity (Staphylococcus aureus [25]): 5.75 log10CFU/ml
Activity (Staphylococcus aureus [26]): 6.04 log10CFU/ml
Activity (Staphylococcus aureus [27]): 5.42 log10CFU/ml
Activity (Staphylococcus aureus [28]): 6.07 log10CFU/ml
Activity (Staphylococcus aureus [29]): 0 log10CFU/ml
Activity (Staphylococcus aureus [30]): 4 log10CFU/ml
Activity (Staphylococcus aureus [31]): 0 log10CFU/ml
Activity (Staphylococcus aureus [32]): 0 log10CFU/ml
Activity (Staphylococcus aureus [33]): 5.88 log10CFU/ml
inhibition [34]: Active
